We go through 14 compounds from US8871753B2, “Macrocyclic compounds and their use as kinase inhibitors” (Incyte Corporation, priority 2008, dated 2014).

For orientation: IC50 means the point on the concentration scale where inhibition reaches its midpoint.

Holding throughout (assay type): biochemical
Test [1] has as its target T1, human JAK1 (a.a. 837-1142) (Homo sapiens, UniProt P23458).
T1 construct: human JAK1 (a.a. 837-1142); His tag (N); made in house; host or cells: insect cells (baculovirus)
The test is described as follows: In vitro JAK kinase assay (HTRF, phosphorylation of a biotinylated peptide), JAK1. The conditions noted are these: read-out: JAK1 IC50. The gist of the method:
(§1)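 Kinase reactions ran at room temperature for 1 h with ATP matched per isoform (JAK1 90 μM, JAK2 30 μM, JAK3 3 μM). After an EDTA stop, the phosphorylated biotin-peptide was read by HTRF using Eu-Py20 and SA-APC after 40 min binding.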
A general note: TR-FRET usually uses a lanthanide donor and a delayed reading to cut background.

Test [2] addresses T2, human JAK2 (a.a. 828-1132) (Homo sapiens, UniProt O60674).
T2 construct: JAK2 (a.a. 828-1132); His tag (N); made in house; host or cells: insect cells (baculovirus)
The test is described as follows: In vitro JAK kinase assay (HTRF, phosphorylation of a biotinylated peptide), JAK2. The procedure, abridged: as §1

The target of test [3] is T3, human JAK3 (a.a. 781-1124) (Homo sapiens, UniProt P52333).
T3 construct: JAK3 (a.a. 781-1124); His tag (N); made in house; host or cells: insect cells (baculovirus)
T3 sequence (P52333 781-1124): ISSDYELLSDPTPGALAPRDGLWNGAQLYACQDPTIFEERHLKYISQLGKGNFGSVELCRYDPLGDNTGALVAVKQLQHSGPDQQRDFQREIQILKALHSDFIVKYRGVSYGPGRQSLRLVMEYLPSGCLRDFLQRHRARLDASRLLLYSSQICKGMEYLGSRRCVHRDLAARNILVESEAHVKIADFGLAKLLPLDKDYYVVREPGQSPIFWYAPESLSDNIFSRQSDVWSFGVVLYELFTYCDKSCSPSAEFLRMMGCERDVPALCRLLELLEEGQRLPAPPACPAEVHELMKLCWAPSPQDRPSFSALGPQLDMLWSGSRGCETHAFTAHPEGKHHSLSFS
The test is described as follows: In vitro JAK kinase assay (HTRF, phosphorylation of a biotinylated peptide), JAK3. The procedure, abridged: as §1

The target of another test is TYK2 (Homo sapiens, UniProt P29597). The test is described as follows: TYK2 kinase inhibition (Table A1).
Sequence of TYK2 (P29597 whole entry): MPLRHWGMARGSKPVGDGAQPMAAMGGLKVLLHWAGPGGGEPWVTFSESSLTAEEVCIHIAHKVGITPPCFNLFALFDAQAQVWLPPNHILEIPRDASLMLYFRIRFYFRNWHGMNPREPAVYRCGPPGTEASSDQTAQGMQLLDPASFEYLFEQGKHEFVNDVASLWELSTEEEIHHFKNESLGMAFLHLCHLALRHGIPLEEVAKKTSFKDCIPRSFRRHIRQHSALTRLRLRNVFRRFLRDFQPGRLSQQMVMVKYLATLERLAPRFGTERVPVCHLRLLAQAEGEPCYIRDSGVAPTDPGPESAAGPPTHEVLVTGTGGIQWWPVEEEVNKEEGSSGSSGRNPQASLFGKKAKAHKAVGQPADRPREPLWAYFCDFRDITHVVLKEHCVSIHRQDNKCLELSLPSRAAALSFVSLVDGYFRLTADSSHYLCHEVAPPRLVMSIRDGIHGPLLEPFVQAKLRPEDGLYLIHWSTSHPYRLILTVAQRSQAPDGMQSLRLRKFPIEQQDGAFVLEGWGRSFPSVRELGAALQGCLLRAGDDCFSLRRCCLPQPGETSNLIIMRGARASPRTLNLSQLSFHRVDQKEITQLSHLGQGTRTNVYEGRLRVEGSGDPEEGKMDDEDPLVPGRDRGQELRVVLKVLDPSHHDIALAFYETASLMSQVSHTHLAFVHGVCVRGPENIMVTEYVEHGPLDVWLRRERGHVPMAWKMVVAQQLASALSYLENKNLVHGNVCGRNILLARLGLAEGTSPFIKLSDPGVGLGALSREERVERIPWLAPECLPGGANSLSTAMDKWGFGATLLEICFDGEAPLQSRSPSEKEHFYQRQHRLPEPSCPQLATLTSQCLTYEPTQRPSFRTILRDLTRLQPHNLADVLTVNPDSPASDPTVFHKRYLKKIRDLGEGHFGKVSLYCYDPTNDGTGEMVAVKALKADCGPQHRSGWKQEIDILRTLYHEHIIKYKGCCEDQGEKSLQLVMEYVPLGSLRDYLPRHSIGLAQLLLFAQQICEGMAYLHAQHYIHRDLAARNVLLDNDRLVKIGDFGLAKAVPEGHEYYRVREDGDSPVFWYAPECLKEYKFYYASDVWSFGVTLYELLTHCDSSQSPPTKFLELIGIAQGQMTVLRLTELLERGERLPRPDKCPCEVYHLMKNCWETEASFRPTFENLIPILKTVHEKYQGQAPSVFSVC
The target in test [4] is T4, Recombinant Human Anaplastic Lymphoma Kinase (Homo sapiens, UniProt Q9UM73).
T4 construct: purchased Invitrogen, Carlsbad, Calif
T4 sequence (Q9UM73 19-1620): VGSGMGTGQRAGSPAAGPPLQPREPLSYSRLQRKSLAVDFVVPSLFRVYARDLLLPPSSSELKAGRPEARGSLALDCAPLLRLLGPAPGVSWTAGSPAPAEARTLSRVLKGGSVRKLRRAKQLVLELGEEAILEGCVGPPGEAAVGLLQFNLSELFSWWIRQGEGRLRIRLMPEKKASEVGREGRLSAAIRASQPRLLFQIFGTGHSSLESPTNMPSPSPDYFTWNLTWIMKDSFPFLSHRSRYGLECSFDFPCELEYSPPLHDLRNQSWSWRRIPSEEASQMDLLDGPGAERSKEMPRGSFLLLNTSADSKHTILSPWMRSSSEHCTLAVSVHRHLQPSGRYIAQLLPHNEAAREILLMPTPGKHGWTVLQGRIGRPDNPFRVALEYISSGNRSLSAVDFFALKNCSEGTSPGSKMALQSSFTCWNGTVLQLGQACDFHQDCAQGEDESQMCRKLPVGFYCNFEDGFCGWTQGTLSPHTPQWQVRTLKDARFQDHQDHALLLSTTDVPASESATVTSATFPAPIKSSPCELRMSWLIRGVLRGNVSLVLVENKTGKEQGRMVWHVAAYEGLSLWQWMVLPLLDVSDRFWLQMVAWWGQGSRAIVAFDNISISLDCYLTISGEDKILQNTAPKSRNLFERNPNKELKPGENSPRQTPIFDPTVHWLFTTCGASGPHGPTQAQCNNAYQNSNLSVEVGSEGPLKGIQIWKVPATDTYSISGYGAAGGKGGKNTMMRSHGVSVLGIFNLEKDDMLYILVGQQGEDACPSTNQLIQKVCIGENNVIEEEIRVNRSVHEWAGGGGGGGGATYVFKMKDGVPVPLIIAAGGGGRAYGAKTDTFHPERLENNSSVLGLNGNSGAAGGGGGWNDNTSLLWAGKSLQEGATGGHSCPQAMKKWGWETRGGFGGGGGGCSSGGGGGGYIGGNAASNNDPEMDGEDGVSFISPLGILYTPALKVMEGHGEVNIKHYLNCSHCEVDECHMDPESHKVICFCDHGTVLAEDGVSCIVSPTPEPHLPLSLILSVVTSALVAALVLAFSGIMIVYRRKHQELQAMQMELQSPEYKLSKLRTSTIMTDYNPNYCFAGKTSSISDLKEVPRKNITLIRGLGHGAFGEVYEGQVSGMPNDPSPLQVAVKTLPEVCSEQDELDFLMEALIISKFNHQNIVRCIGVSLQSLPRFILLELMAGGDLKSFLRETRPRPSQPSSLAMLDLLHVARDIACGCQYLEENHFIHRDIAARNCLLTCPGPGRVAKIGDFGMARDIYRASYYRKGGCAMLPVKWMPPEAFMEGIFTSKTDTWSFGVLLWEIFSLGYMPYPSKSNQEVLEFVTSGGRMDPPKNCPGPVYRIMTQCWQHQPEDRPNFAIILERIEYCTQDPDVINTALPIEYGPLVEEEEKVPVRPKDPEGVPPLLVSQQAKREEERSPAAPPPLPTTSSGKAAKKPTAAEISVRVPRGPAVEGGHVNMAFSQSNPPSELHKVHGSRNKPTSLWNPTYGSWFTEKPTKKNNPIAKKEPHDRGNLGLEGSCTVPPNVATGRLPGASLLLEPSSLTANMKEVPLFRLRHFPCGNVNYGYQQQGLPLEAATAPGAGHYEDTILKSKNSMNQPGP
The test is described as follows: ALK HTRF kinase assay. The gist of the method: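 Compounds were incubated with recombinant human ALK and a biotin-tagged peptide substrate. Product was captured with streptavidin-APC and probed with a europium anti-phosphotyrosine antibody, and plates were read for time-resolved fluorescence. Dose-response data were fitted to derive IC50.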

Setting [5] is: compound at a concentration of 500 nM or 1 mM (not specified), cells shown as percentage.
Setting [6] is: method AA1 (90 μM ATP) or AA2 (1000 μM ATP), not stated per value.
Setting [7] is: method AA1 (30 μM ATP) or AA2 (1000 μM ATP), not stated per value.
[8] abbreviates: method AA1 (3 μM ATP) or AA2 (1000 μM ATP), not stated per value.
Where [9] appears, read: compound at 500 nM or 1 mM, 90 μM ATP.
The mark [10] stands for this setting: Table B1, cells without percent sign.
The mark [11] stands for this setting: percentage inhibition of the example compound at a concentration of 500 nM or 1 mM (not specified which).

Where a name gives a salt, the structure may show the parent alone. Read-outs that look alike come from different tables or passages of the source. Bounds are passed on as bounds.

T1 sequence (P23458 849-1154): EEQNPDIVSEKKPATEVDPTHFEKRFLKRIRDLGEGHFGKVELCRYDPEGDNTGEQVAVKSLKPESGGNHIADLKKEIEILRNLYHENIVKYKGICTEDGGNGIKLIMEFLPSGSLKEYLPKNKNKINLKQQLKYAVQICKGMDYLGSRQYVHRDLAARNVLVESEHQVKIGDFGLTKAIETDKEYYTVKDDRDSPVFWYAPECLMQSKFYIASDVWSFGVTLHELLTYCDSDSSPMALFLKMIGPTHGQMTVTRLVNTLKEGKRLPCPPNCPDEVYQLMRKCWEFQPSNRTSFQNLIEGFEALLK
T2 sequence (O60674 828-1132): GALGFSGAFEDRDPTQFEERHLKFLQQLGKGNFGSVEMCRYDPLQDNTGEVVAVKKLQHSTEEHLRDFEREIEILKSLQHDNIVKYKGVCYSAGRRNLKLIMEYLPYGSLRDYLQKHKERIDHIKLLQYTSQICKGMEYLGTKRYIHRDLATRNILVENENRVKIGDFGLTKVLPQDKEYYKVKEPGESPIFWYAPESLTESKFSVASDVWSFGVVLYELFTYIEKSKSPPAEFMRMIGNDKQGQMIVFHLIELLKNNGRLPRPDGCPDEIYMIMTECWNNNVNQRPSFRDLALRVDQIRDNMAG

Consider `CC(=O)N1CCN(Cc2ccc3cc2CCc2cccc(c2)Nc2ncc(Cl)c(n2)N3)CC1` [Example B225, 12-[(4-Acetylpiperazin-1-yl)methyl]-6-chloro-2,4,8,22-tetraazatetracyclo[14.3.1.1(3,7).1(9,13)]docosa-1(20),3(22),4,6,9(21),10,12,16,18-nonaene bis(trifluoroacetate)], for which the IC50 in test [1] (Table B1) amounted to 0.031 µM; in test [2] (Table B1) it was 0.01 µM; in test [3] (Table B1) it was 0.037 µM; against TYK2 (Table B1), 0.046 µM. In test [4] (setting [5]), the “ALK % of inhibition at a concentration of 500 nM or 1 mM” value (“ALK % of inhibition” below) came to 27%.
For the compound `O=C(c1cc2cc(c1)OCCSc1cccc(c1)Nc1nc(ncc1Cl)N2)N1CCN(c2ccccc2)CC1` [Example D53, 6-Chloro-20-[(4-phenylpiperazin-1-yl)carbonyl]-17-oxa-14-thia-2,4,8,24-tetraazatetracyclo[16.3.1.1(3,7).1(9,13)]tetracosa-1(22),3(24),4,6,9(23),10,12,18,20-nonaene bis(trifluoroacetate)], the 50% inhibitory concentration (IC50) in test [1] (Table D1) was 0.027 µM; in test [2] (Table D1), 0.034 µM; in test [3] (Table D1), 0.273 µM; against TYK2 (Table D1) it was 0.028 µM; in test [4] (Table D1, 90 μM ATP), 1.15 µM.
With `O=C(CC1CCN(C(=O)c2ccncc2)CC1)Nc1ccc2cc1CCc1cccc(c1)Nc1ncc(Cl)c(n1)N2` [Example A185, N-[6-Chloro-2,4,8,22-tetraazatetracyclo[14.3.1.1(3,7).1(9,13)]docosa-1(20),3(22),4,6,9(21),10,12,16,18-nonaen-12-yl]-2-(1-isonicotinoylpiperidin-4-yl)acetamide bis(trifluoroacetate)], the IC50 in test [1] (setting [6]) was 0.062 µM; in test [2] (setting [7]), over 0.2 µM; in test [3] (setting [8]), over 0.2 µM; against TYK2 it was over 0.2 µM. The “ALK % of inhibition” value in test [4] (setting [9]) is 33%.
With `O=S(=O)(Nc1ccc2cc1CCc1cccc(c1)Nc1ncc(Cl)c(n1)N2)c1cccs1` [Example B146, N-[6-Chloro-2,4,8,22-tetraazatetracyclo[14.3.1.1(3,7).1(9,13)]docosa-1(20), 3(22),4,6,9(21),10,12,16,18-nonaen-12-yl]thiophene-2-sulfonamide trifluoroacetate], the half-inhibitory concentration (IC50) in test [1] (Table B1) was 0.0005 µM; in test [2] (Table B1), 0.00011 µM; in test [3] (Table B1) it was 0.0026 µM; against TYK2 (Table B1) it was 0.00061 µM; in test [4] (setting [10]) it was 0.13 µM.
For `Cc1ncsc1C(=O)N1CCC(CC(=O)Nc2ccc3cc2CCc2cncc(c2)Nc2ncc(Cl)c(n2)N3)CC1` [Example A216, N-[6-Chloro-2,4,8,18,22-pentaazatetracyclo[14.3.1.1(3,7).1(9,13)]docosa-1(20),3(22),4,6,9(21),10,12,16,18-nonaen-12-yl]-2-{1-[(4-methyl-1,3-thiazol-5-yl)carbonyl]piperidin-4-yl}acetamide bis(trifluoroacetate)], the IC50 in test [1] (setting [6]) is 0.08 µM; in test [2] (setting [7]), over 0.2 µM; in test [3] (setting [8]), over 0.2 µM; at TYK2, over 0.2 µM. For the same compound, the “ALK % of inhibition” value in test [4] (setting [9]) was determined as 29%.
On to `O=C(Nc1ccc2cc1CCc1cncc(c1)Nc1ncc(Cl)c(n1)N2)N1CCN(c2ncccn2)CC1` [Example B309, N-[6-Chloro-2,4,8,18,22-pentaazatetracyclo[14.3.1.1(3,7).1(9,13)]docosa-1(20),3(22),4,6,9(21),10,12,16,18-nonaen-12-yl]-4-pyrimidin-2-ylpiperazine-1-carboxamide tris(trifluoroacetate)], for which the IC50 in test [1] (Table B1) is 0.021 µM; in test [2] (Table B1), 0.133 µM; in test [3] (Table B1), over 0.4 µM; on TYK2 (Table B1), 0.067 µM. The “ALK % of inhibition” value in test [4] (setting [11]) is given as 68%.
In the same order, the values of `COc1cccc(N2CCN(C(=O)Nc3ccc4cc3CCc3cncc(c3)Nc3ncc(Cl)c(n3)N4)CC2)c1` [Example B304, N-[6-Chloro-2,4,8,18,22-pentaazatetracyclo[14.3.1.1(3,7).1(9,13)]docosa-1(20),3(22),4,6,9(21),10,12,16,18-nonaen-12-yl]-4-(3-methoxyphenyl)piperazine-1-carboxamide tris(trifluoroacetate)] are 0.058 µM, 0.3 µM, over 0.4 µM, 0.09 µM and 67%.
For `O=C(Nc1ccc2cc1CCc1cccc(c1)Nc1ncc(Cl)c(n1)N2)c1ccc2occc2c1` [Example B79, N-[6-Chloro-2,4,8,22-tetraazatetracyclo[14.3.1.1(3,7).1(9,13)]docosa-1(20), 3(22),4,6,9(21),10,12,16,18-nonaen-12-yl]-1-benzofuran-5-carboxamide trifluoroacetate], the half-maximal inhibitory concentration (IC50) was found to be 0.00083 µM in test [1] (Table B1), 0.00058 µM in test [2] (Table B1), 0.0028 µM in test [3] (Table B1) and 0.0017 µM against TYK2 (Table B1). For the same compound, the “ALK % of inhibition” value in test [4] (setting [5]) came out at 91%.
In the same order, the values of `O=C(Nc1ccc2cc1CCc1cccc(c1)Nc1ncc(Cl)c(n1)N2)N[C@H]1CCN(C(=O)c2ccccn2)C1` [Example B233, N-[6-Chloro-2,4,8,22-tetraazatetracyclo[14.3.1.1(3,7).1(9,13)]docosa-1(20),3(22),4,6,9(21),10,12,16,18-nonaen-12-yl]-N′-[(3S)-1-(pyridin-2-ylcarbonyl)pyrrolidin-3-yl]urea bis(trifluoroacetate)] are 0.007 µM, 0.011 µM, 0.102 µM, 0.024 µM and 5.8%.
Regarding `Clc1cnc2nc1Nc1cccc(c1)COc1cccc(c1)N2` [Example D6, 6-Chloro-15-oxa-2,4,8,22-tetraazatetracyclo[14.3.1.1(3,7).1(9,13)]docosa-1(20),3(22),4,6,9(21),10,12,16,18-nonaene trifluoroacetate], the IC50 is 0.036 µM in test [1] (Table D1); 0.037 µM in test [2] (Table D1); over 0.1 µM in test [3] (Table D1); 0.016 µM on TYK2 (Table D1); 4.19 µM in test [4] (Table D1, 90 μM ATP).
`O=C(Nc1ccccc1)c1ccc2cc1CCc1cccc(c1)Nc1ncc(Cl)c(n1)N2` [Example B200, 6-Chloro-N-phenyl-2,4,8,22-tetraazatetracyclo[14.3.1.1(3,7).1(9,13)]docosa-1(20),3(22),4,6,9(21),10,12,16,18-nonaene-12-carboxamide trifluoroacetate]: the IC50 in test [1] (Table B1) was found to be 0.082 µM; in test [2] (Table B1), 0.017 µM; in test [3] (Table B1), 0.118 µM; at TYK2 (Table B1), 0.085 µM; in test [4] (setting [10]), 4.4 µM.
As to `CC(Oc1ccc2cc1CCc1cccc(c1)Nc1ncc(Cl)c(n1)N2)C(=O)Nc1ccccc1` (stereo not shown) [Example A16, 2-{[6-Chloro-2,4,8,22-tetraazatetracyclo[14.3.1.1(3,7).1(9,13)]docosa-1(20),3(22),4,6,9(21),10,12,16,18-nonaen-12-yl]oxy}-N-phenylpropanamide trifluoroacetate], the IC50 was found to be 0.012 µM in test [1] (setting [6]), 0.01 µM in test [2] (setting [7]), 0.06 µM in test [3] (setting [8]) and 0.032 µM against TYK2. In test [4] (setting [9]), the “ALK % of inhibition” value is given as 21%.
As to `O=C(Nc1ccc2cc1CCc1cncc(c1)Nc1ncc(Cl)c(n1)N2)N[C@H]1CCN(c2nc3cccnc3o2)C1` [Example B275, N-[6-Chloro-2,4,8,18,22-pentaazatetracyclo[14.3.1.1(3,7).1(9,13)]docosa-1(20),3(22),4,6,9(21),10,12,16,18-nonaen-12-yl]-N′-[(3S)-1-[1,3]oxazolo[5,4-b]pyridin-2-ylpyrrolidin-3-yl]urea tris(trifluoroacetate)], the IC50 in test [1] (Table B1) was 0.014 µM; in test [2] (Table B1) it was 0.129 µM; in test [3] (Table B1), over 10 µM; against TYK2 (Table B1), 0.348 µM. The “ALK % of inhibition” value in test [4] (setting [5]) came to 9.8%.
The matching figures for `Cc1cc(C(=O)N2CCC(NC(=O)Nc3ccc4cc3CCc3cccc(c3)Nc3ncc(Cl)c(n3)N4)CC2)no1` [Example B263, N-[6-Chloro-2,4,8,22-tetraazatetracyclo[14.3.1.1(3,7).1(9,13)]docosa-1(20),3(22),4,6,9(21),10,12,16,18-nonaen-12-yl]-N′-{1-[(5-methylisoxazol-3-yl)carbonyl]piperidin-4-yl}urea trifluoroacetate]: 0.0067 µM, 0.0093 µM, 0.11 µM, 0.022 µM and 29%.
